Results reported in the supplement of paper PMC10307832.

Experiments:
Test in all cases: relative viability (nuclei count vs DMSO), 5 days (fraction); higher = more cells survive
[1] = test system: EPLC-272H
Outline: (§1)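 For relative viability, nuclei counts in treated wells were divided by those in vehicle wells. Lung cancer cell lines had been pin-tool dosed in 1536-well plates the day after seeding and cultured for 5 days, then fixed and stained in one step (final 0.05% Triton X-100, 1% formaldehyde, 1 ug/ml Hoechst) and imaged at 4×. Doses were one drug alone or a fixed anchor-drug dose plus five library-drug doses (not always all listed) in √10 steps, and values are duplicate-plate medians.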

[2] = test system: EMC-BAC-2
Outline: as §1

[3] = test system: NCI-H1355
Outline: as §1

[4] = test system: NCI-H2085
Outline: as §1

[5] = test system: NCI-H520
Outline: as §1

[6] = test system: NCI-H2405
Outline: as §1

[7] = test system: UMC-11
Outline: as §1

[8] = test system: H3255
Outline: as §1

[9] = test system: NCI-H322M
Outline: as §1

[10] = test system: ChaGo-K-1
Outline: as §1

[11] = test system: NCI-H650
Outline: as §1

[12] = test system: HCC-827
Outline: as §1

[13] = test system: NCI-H1944
Outline: as §1

[14] = test system: LCLC-97TM1
Outline: as §1

[15] = test system: NCI-H2087
Outline: as §1

[16] = test system: HCC-44
Outline: as §1

[17] = test system: NCI-H1395
Outline: as §1

[18] = test system: NCI-H1651
Outline: as §1

[19] = test system: LCLC-103H
Outline: as §1

[20] = test system: NCI-H1993
Outline: as §1

[21] = test system: SK-MES-1
Outline: as §1

[22] = test system: NCI-H23
Outline: as §1

[23] = test system: NCI-H1793
Outline: as §1

COc1cc(N2CCC(C(N)=O)CC2)ccc1Nc1nc(N)c(Cl)c(Nc2ccccc2S(=O)(=O)C(C)C)n1 [HG-5-88-01] + CC(=O)c1c(C)c2cnc(Nc3ccc(N4CCNCC4)cn3)nc2n(C2CCCC2)c1=O [Palbociclib] (partner 0.5 µM)
relative viability ([1]; first compound 0.04 µM): 0.342
relative viability ([1]; first compound 0.1265 µM): 0.342
relative viability ([1]; first compound 0.4 µM): 0.335
relative viability ([1]; first compound 1.265 µM): 0.273
relative viability ([1]; first compound 4 µM): 0.0966
relative viability ([2]; first compound 0.04 µM): 0.516
relative viability ([2]; first compound 0.1265 µM): 0.543
relative viability ([2]; first compound 0.4 µM): 0.48
relative viability ([2]; first compound 1.265 µM): 0.405
relative viability ([2]; first compound 4 µM): 0.438
relative viability ([3]; first compound 0.04 µM): 0.4
relative viability ([3]; first compound 0.1265 µM): 0.394
relative viability ([3]; first compound 0.4 µM): 0.426
relative viability ([3]; first compound 1.265 µM): 0.338
relative viability ([3]; first compound 4 µM): 0.362
relative viability ([4]; first compound 0.04 µM): 0.474
relative viability ([4]; first compound 0.1265 µM): 0.485
relative viability ([4]; first compound 0.4 µM): 0.458
relative viability ([4]; first compound 1.265 µM): 0.465
relative viability ([4]; first compound 4 µM): 0.552
relative viability ([5]; first compound 0.04 µM): 0.206
relative viability ([5]; first compound 0.1265 µM): 0.216
relative viability ([5]; first compound 0.4 µM): 0.186
relative viability ([5]; first compound 1.265 µM): 0.247
relative viability ([5]; first compound 4 µM): 0.232
relative viability ([6]; first compound 0.04 µM): 0.515
relative viability ([6]; first compound 0.1265 µM): 0.523
relative viability ([6]; first compound 0.4 µM): 0.528
relative viability ([6]; first compound 1.265 µM): 0.348
relative viability ([6]; first compound 4 µM): 0.462
relative viability ([7]; first compound 0.04 µM): 0.321
relative viability ([7]; first compound 0.1265 µM): 0.369
relative viability ([7]; first compound 0.4 µM): 0.297
relative viability ([7]; first compound 1.265 µM): 0.348
relative viability ([7]; first compound 4 µM): 0.308
relative viability ([8]; first compound 0.04 µM): 0.291
relative viability ([8]; first compound 0.1265 µM): 0.312
relative viability ([8]; first compound 0.4 µM): 0.309
relative viability ([8]; first compound 4 µM): 0.277
relative viability ([9]; first compound 0.04 µM): 0.532
relative viability ([9]; first compound 0.1265 µM): 0.492
relative viability ([9]; first compound 0.4 µM): 0.477
relative viability ([9]; first compound 1.265 µM): 0.337
relative viability ([9]; first compound 4 µM): 0.443
relative viability ([10]; first compound 0.04 µM): 0.931
relative viability ([10]; first compound 0.1265 µM): 0.813
relative viability ([10]; first compound 0.4 µM): 0.881
relative viability ([10]; first compound 1.265 µM): 0.959
relative viability ([10]; first compound 4 µM): 0.881
relative viability ([11]; first compound 0.04 µM): 0.398
relative viability ([11]; first compound 0.1265 µM): 0.341
relative viability ([11]; first compound 0.4 µM): 0.338
relative viability ([11]; first compound 1.265 µM): 0.303
relative viability ([11]; first compound 4 µM): 0.296
relative viability ([12]; first compound 0.04 µM): 0.583
relative viability ([12]; first compound 0.1265 µM): 0.459
relative viability ([12]; first compound 0.4 µM): 0.425
relative viability ([12]; first compound 1.265 µM): 0.197
relative viability ([12]; first compound 4 µM): 0.33
relative viability ([13]; first compound 0.04 µM): 0.37
relative viability ([13]; first compound 0.1265 µM): 0.351
relative viability ([13]; first compound 0.4 µM): 0.36
relative viability ([13]; first compound 1.265 µM): 0.322
relative viability ([13]; first compound 4 µM): 0.31
relative viability ([14]; first compound 0.04 µM): 0.214
relative viability ([14]; first compound 0.1265 µM): 0.198
relative viability ([14]; first compound 0.4 µM): 0.197
relative viability ([14]; first compound 1.265 µM): 0.194
relative viability ([14]; first compound 4 µM): 0.118
relative viability ([15]; first compound 0.04 µM): 0.242
relative viability ([15]; first compound 0.1265 µM): 0.246
relative viability ([15]; first compound 0.4 µM): 0.219
relative viability ([15]; first compound 1.265 µM): 0.207
relative viability ([15]; first compound 4 µM): 0.244
relative viability ([16]; first compound 0.04 µM): 0.983
relative viability ([16]; first compound 0.1265 µM): 0.957
relative viability ([16]; first compound 0.4 µM): 0.864
relative viability ([16]; first compound 1.265 µM): 0.954
relative viability ([16]; first compound 4 µM): 0.943
relative viability ([17]; first compound 0.04 µM): 0.593
relative viability ([17]; first compound 0.1265 µM): 0.754
relative viability ([17]; first compound 0.4 µM): 0.613
relative viability ([17]; first compound 1.265 µM): 0.474
relative viability ([17]; first compound 4 µM): 0.664
relative viability ([18]; first compound 0.04 µM): 0.571
relative viability ([18]; first compound 0.1265 µM): 0.51
relative viability ([18]; first compound 0.4 µM): 0.517
relative viability ([18]; first compound 1.265 µM): 0.458
relative viability ([18]; first compound 4 µM): 0.616
relative viability ([19]; first compound 0.04 µM): 0.48
relative viability ([19]; first compound 0.1265 µM): 0.48
relative viability ([19]; first compound 0.4 µM): 0.443
relative viability ([19]; first compound 1.265 µM): 0.504
relative viability ([19]; first compound 4 µM): 0.445
relative viability ([20]; first compound 0.04 µM): 0.662
relative viability ([20]; first compound 0.1265 µM): 0.69
relative viability ([20]; first compound 0.4 µM): 0.793
relative viability ([20]; first compound 4 µM): 0.564
relative viability ([21]; first compound 0.04 µM): 0.319
relative viability ([21]; first compound 0.1265 µM): 0.273
relative viability ([21]; first compound 0.4 µM): 0.27
relative viability ([21]; first compound 1.265 µM): 0.304
relative viability ([21]; first compound 4 µM): 0.247
relative viability ([22]; first compound 0.04 µM): 0.507
relative viability ([22]; first compound 0.1265 µM): 0.549
relative viability ([22]; first compound 0.4 µM): 0.545
relative viability ([22]; first compound 1.265 µM): 0.378
relative viability ([22]; first compound 4 µM): 0.263
relative viability ([23]; first compound 0.04 µM): 0.301
relative viability ([23]; first compound 0.1265 µM): 0.309
relative viability ([23]; first compound 0.4 µM): 0.299
relative viability ([23]; first compound 1.265 µM): 0.24
relative viability ([23]; first compound 4 µM): 0.33
